Source: article PMC5439695 (PLoS ONE, 2017)
Several values for one entry are separate records, joined by “and”; a condition that tells them apart may be missing. Equal values may be shown once. Read-outs that look alike come from different tables or passages of the source.

Assays:
[1] = tested on: HEK293 and HepG2 cell lines
HepG2 cells [2] = test: CellTox Green Cytotoxicity Assay (flor) in HepG2, HepG2[flor]; assay type: cell-based, human; conditions: for EC50: HepG2, flor, n=136, read-out: EC50;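 on hepg2 flor emax 0: percent activity versus DMSO-only wells with baseline rescaled to 0%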;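 on hepg2 flor emax 40: percent activity versus DMSO-only wells with baseline rescaled to 0%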
HepG2 cells [3] = conditions: for IC50: HepG2, glo, n=136
HEK293 cells [4] = conditions: for IC50: HEK293, glo, mean and SD, n=136
HEK293 cells [5] = conditions: for EC50: HEK293, flor, mean and SD, n=136
[6] = POD potency, max over real-time cytotoxicity assays
[7] = POD potency, median over real-time cytotoxicity assays
[8] = HEK293[glo], HEK293[flor], HepG2[glo], HepG2[flor]
Wherever hek293 flor emax 0 is given: unit not given here.

## Cl.Cl.Nc1ccc(-c2ccc(N)c(Cl)c2)cc1Cl [3,3'-Dichlorobenzidine dihydrochloride]
[1]; [6]
  Cyto(realtime)_max: 5.37 log10(M)*-1
[1]; [7]
  Cyto(realtime)_median: 4.59 log10(M)*-1

## CC(C)(C)CC(C)(C)c1ccc(O)cc1 [4-(1,1,3,3-tetramethylbutyl)phenol, reference compound]
[1]; [8]
  cytotoxicity kinetics activity profile in the four real-time cytotoxicity assays: quickly reach the maximum cytotoxic effect in at least three assays

## O=[N+]([O-])C1(Br)COCOC1 [5-Bromo-5-nitro-1,3-dioxane]
[1]; [6]
  Cyto(realtime)_max: 4.72 log10(M)*-1
[1]; [7]
  Cyto(realtime)_median: 4.41 log10(M)*-1

## O=C(O)c1ccccc1O.Oc1cccc2cccnc12 [8-Quinolinol Salicylic acid (1:1)]
HepG2 cells [2]; HepG2 flor
  hepg2_flor_auc: 0
  hepg2_flor_time: 48
HepG2 cells [2]; HepG2 flor, kinetics bin
  hepg2_flor_bin: inactive
HepG2 cells [2]; HepG2 flor, time point 0
  hepg2_flor_emax_0: 0
  hepg2_flor_pod_0: -4.417
  hepg2_flor_wauc_0: 0
HepG2 cells [2]; HepG2 flor, time point 8
  hepg2_flor_emax_8: 0
  hepg2_flor_pod_8: -4.417
  hepg2_flor_wauc_8: 0
HepG2 cells [2]; HepG2 flor, time point 16
  hepg2_flor_emax_16: 0
  hepg2_flor_pod_16: -4.417
  hepg2_flor_wauc_16: 0
HepG2 cells [2]; HepG2 flor, time point 24
  hepg2_flor_emax_24: 0
  hepg2_flor_pod_24: -4.417
  hepg2_flor_wauc_24: 0
HepG2 cells [2]; HepG2 flor, time point 32
  hepg2_flor_emax_32: 0
  hepg2_flor_pod_32: -4.417
  hepg2_flor_wauc_32: 0
HepG2 cells [2]; HepG2 flor, time point 40
  hepg2_flor_emax_40: 0
  hepg2_flor_pod_40: -4.417
  hepg2_flor_wauc_40: 0
HepG2 cells [3]; HepG2 glo
  hepg2_glo_auc: 0
  hepg2_glo_time: 48
HepG2 cells [3]; HepG2 glo, kinetics bin
  hepg2_glo_bin: inactive
HepG2 cells [3]; HepG2 glo, time point 0
  hepg2_glo_emax_0: 0
  hepg2_glo_pod_0: -4.417
  hepg2_glo_wauc_0: 0
HepG2 cells [3]; HepG2 glo, time point 8
  hepg2_glo_emax_8: 0
  hepg2_glo_pod_8: -4.417
  hepg2_glo_wauc_8: 0
HepG2 cells [3]; HepG2 glo, time point 16
  hepg2_glo_emax_16: 0
  hepg2_glo_pod_16: -4.417
  hepg2_glo_wauc_16: 0
HepG2 cells [3]; HepG2 glo, time point 24
  hepg2_glo_emax_24: 0
  hepg2_glo_pod_24: -4.417
  hepg2_glo_wauc_24: 0
HepG2 cells [3]; HepG2 glo, time point 32
  hepg2_glo_emax_32: 0
  hepg2_glo_pod_32: -4.417
  hepg2_glo_wauc_32: 0
HepG2 cells [3]; HepG2 glo, time point 40
  hepg2_glo_emax_40: 0
  hepg2_glo_pod_40: -4.417
  hepg2_glo_wauc_40: 0
HEK293 cells [4]; HEK293 glo
  hek293_glo_auc: 0
  hek293_glo_time: 48
HEK293 cells [4]; HEK293 glo, kinetics bin
  hek293_glo_bin: inactive
HEK293 cells [4]; HEK293 glo, time point 0
  hek293_glo_emax_0: 0
  hek293_glo_pod_0: -4.417
  hek293_glo_wauc_0: 0
HEK293 cells [4]; HEK293 glo, time point 8
  hek293_glo_emax_8: 0
  hek293_glo_pod_8: -4.417
  hek293_glo_wauc_8: 0
HEK293 cells [4]; HEK293 glo, time point 16
  hek293_glo_emax_16: 0
  hek293_glo_pod_16: -4.417
  hek293_glo_wauc_16: 0
HEK293 cells [4]; HEK293 glo, time point 24
  hek293_glo_emax_24: 0
  hek293_glo_pod_24: -4.417
  hek293_glo_wauc_24: 0
HEK293 cells [4]; HEK293 glo, time point 32
  hek293_glo_emax_32: 0
  hek293_glo_pod_32: -4.417
  hek293_glo_wauc_32: 0
HEK293 cells [4]; HEK293 glo, time point 40
  hek293_glo_emax_40: 0
  hek293_glo_pod_40: -4.417
  hek293_glo_wauc_40: 0
HEK293 cells [5]; HEK293 flor
  hek293_flor_auc: 0
  hek293_flor_time: 48
HEK293 cells [5]; HEK293 flor, kinetics bin
  hek293_flor_bin: inactive
HEK293 cells [5]; HEK293 flor, time point 0
  hek293_flor_emax_0: 0
  hek293_flor_pod_0: -4.417
  hek293_flor_wauc_0: 0
HEK293 cells [5]; HEK293 flor, time point 8
  hek293_flor_emax_8: 0
  hek293_flor_pod_8: -4.417
  hek293_flor_wauc_8: 0
HEK293 cells [5]; HEK293 flor, time point 16
  hek293_flor_emax_16: 0
  hek293_flor_pod_16: -4.417
  hek293_flor_wauc_16: 0
HEK293 cells [5]; HEK293 flor, time point 24
  hek293_flor_emax_24: 0
  hek293_flor_pod_24: -4.417
  hek293_flor_wauc_24: 0
HEK293 cells [5]; HEK293 flor, time point 32
  hek293_flor_emax_32: 0
  hek293_flor_pod_32: -4.417
  hek293_flor_wauc_32: 0
HEK293 cells [5]; HEK293 flor, time point 40
  hek293_flor_emax_40: 0
  hek293_flor_pod_40: -4.417
  hek293_flor_wauc_40: 0
[1]
  information: 0

## CC/C(=C(\c1ccc(O)cc1)c1ccc(OCCN(C)C)cc1)c1ccccc1 [(Z)-4-Hydroxytamoxifen]
[1]; [6]
  Cyto(realtime)_max: 4.89 log10(M)*-1
[1]; [7]
  Cyto(realtime)_median: 4.45 log10(M)*-1

## CC=O [Acetaldehyde]
[1]; [6]
  Cyto(realtime)_max: 6.67 log10(M)*-1
[1]; [7]
  Cyto(realtime)_median: 4.54 log10(M)*-1

## C=C(c1ccc(C(=O)O)cc1)c1cc2c(cc1C)C(C)(C)CCC2(C)C [Bexarotene]
[1]
  Cyto(realtime)_max: 4.68 log10(M)*-1
  Cyto(realtime)_median: 4.23 log10(M)*-1

## C[C@]12CC[C@@H]3c4ccc(O)cc4C[C@@H](CCCCCCCCC[S+]([O-])CCCC(F)(F)C(F)(F)F)[C@H]3[C@@H]1CC[C@@H]2O (stereo partly drawn) [fulvestrant, reference compound]
[1]; human
  cytotoxicity kinetics activity profile in the four real-time cytotoxicity assays: solely active, HEK293[glo]

## CO[C@@]12[C@H](COC(N)=O)C3=C(C(=O)C(C)=C(N)C3=O)N1C[C@@H]1N[C@@H]12 [mitomycin C, reference compound]
HepG2 cells [3]
  activity in the assay (cytotoxic effect): active

## ClC(Cl)=C(c1ccc(Cl)cc1)c1ccc(Cl)cc1 [p,p'-DDE, reference compound]
[1]; [8]
  cytotoxicity kinetics activity profile in the four real-time cytotoxicity assays: quickly reach the maximum cytotoxic effect in at least three assays

## CCCCCCCC[N+](CCCCCCCC)(CCCCCCCC)CCCCCCCC [tetra-N-octylammonium bromide, reference compound]
HepG2 cells [2]; 8 hrs
  EC50: 7.59 ± 1.48 µM
HepG2 cells [2]; 16 hrs
  EC50: 6.18 ± 1.27 µM
HepG2 cells [2]; 24 hrs
  EC50: 5.87 ± 1.1 µM
HepG2 cells [2]; 32 hrs
  EC50: 6.43 ± 1 µM
HepG2 cells [2]; 40 hrs
  EC50: 6.4 ± 0.96 µM
HepG2 cells [3]; 8 hrs
  IC50: 7.9 ± 1.62 µM
HepG2 cells [3]; 16 hrs
  IC50: 7.53 ± 1.44 µM
HepG2 cells [3]; 24 hrs
  IC50: 7.79 ± 1.54 µM
HepG2 cells [3]; 32 hrs
  IC50: 8.05 ± 1.68 µM
HepG2 cells [3]; 40 hrs
  IC50: 8.18 ± 1.91 µM
HEK293 cells [4]; 8 hrs
  IC50: 5.91 ± 1.26 µM
HEK293 cells [4]; 16 hrs
  IC50: 2.53 ± 0.74 µM
HEK293 cells [4]; 24 hrs
  IC50: 1.34 ± 0.52 µM
HEK293 cells [4]; 32 hrs
  IC50: 0.87 ± 0.44 µM
HEK293 cells [4]; 40 hrs
  IC50: 0.79 ± 0.32 µM
HEK293 cells [5]; 8 hrs
  EC50: 9.88 ± 2.1 µM
HEK293 cells [5]; 16 hrs
  EC50: 8.01 ± 1.52 µM
HEK293 cells [5]; 24 hrs
  EC50: 6.06 ± 1.11 µM
HEK293 cells [5]; 32 hrs
  EC50: 6.8 µM and 6.73 µM
HEK293 cells [5]; 40 hrs
  EC50: 7.69 ± 1.76 µM

## C=CC1(C)OC(=O)N(c2cc(Cl)cc(Cl)c2)C1=O (stereo not drawn) [vinclozolin, reference compound]
[1]
  cytotoxicity kinetics activity profile in the four real-time cytotoxicity assays: no activity in all four real-time cytotoxicity assays

## Bis(tributyltin)oxide
[1]
  Cyto(realtime)_max: 7.21 log10(M)*-1
  Cyto(realtime)_median: 6.40 log10(M)*-1

## C.I. Solvent Black 5
[1]; [6]
  Cyto(realtime)_max: 5.68 log10(M)*-1
[1]; [7]
  Cyto(realtime)_median: 4.42 log10(M)*-1

## Triethyltin bromide
[1]
  Cyto(realtime)_max: 6.72 log10(M)*-1
  Cyto(realtime)_median: 5.42 log10(M)*-1
